{
  "source": "patent US11717556B2",
  "about": "“Stemness-suppressing composition comprising OCT4 function-inhibiting peptide” (NATIONAL CANCER CENTER, priority 2018, dated 2023)",
  "key": {"[1]": {"system": "OCT4 S236 phosphorylation in cell lines", "test": "Immunofluorescence staining of OCT4 phosphorylation after cell permeable peptide treatment", "assay_type": "cell-based", "settings": "cell permeable peptide 10 uM in cell culture solution, 2 days or more; immunofluorescence staining (FIG. 21)"}, "[2]": {"system": "OCT4 S236 phosphorylation in NCCIT and NTERA-2 cell lines", "test": "Okadaic acid (PP1 inhibitor) treatment, western blotting and immunofluorescence staining of OCT4 S236 phosphorylation", "assay_type": "cell-based, human", "settings": "NCCIT and NTERA-2 treated with okadaic acid; western blotting and immunofluorescence (FIGS. 10, 11)"}, "[3]": {"system": "OCT4 phosphorylation in NCCIT cell line", "test": "Western blotting of OCT4 phosphorylation in NCCIT cell line transformed with peptide vectors", "assay_type": "cell-based, human", "settings": "vector-expressed peptide, cultured 36 to 48 hours, western blotting quantified with ImageJ (FIG. 16)", "text": "In order to confirm the link between the phosphorylation of an octamer-binding transcription factor 4 (OCT4) protein and stemness, first, a cell line expressing OCT4 substituted with 236D as an OCT4 S236 phosphorylation mimetic mutant was constructed. For construction of cells, a lentivirus expressing short hairpin RNA ([…], SEQ ID NO: 1) and a puromycin resistance gene in a doxycycline-dependent manner was constructed, and primarily, NCCIT(ATCC® CRL-2073™) and NTERA-2 (ATCC® CRL-1973™), which are cancer stem cell lines, were transfected with the lentivirus. Then, a plasmid recombinant for expressing OCT4 wild type and blasticidine resistance genes, or OCT4 substituted with 236D which is a phosphorylation mimetic of OCT4 and blasticidine resistance genes in a pCAG-Flag-B/S vector was secondarily transfected into the transfected cell line using Lipofectamine 3000 (Thermo Fisher). […]\nAfter an NCCIT cell line was transformed by inserting the vector constructed by the method in Example 5 into the NCCIT cell line using Lipofectamine 3000, and then cultured for 36 hours to 48 hours, western blotting was performed in the same manner as in Example 2.1. The quantification of western blotting was analyzed using ImageJ. […]"}, "PP1 protein": {"system": "PP1 protein", "test": "Fluorescence polarization binding of FITC-bound peptides to purified PP1 protein", "procedure": "Peptides in which FITC was bound to Helix-1, Helix-2, and Helix-3 in Example 4 were synthesized.\nThe peptides were uniformly aliquoted at a final concentration of 20 nM into a fluorescence polarization reaction buffer solution (10 mM HEPES pH7.5, 50 mM NaCl, 1 mM DTT, 1 mM EDTA, and 0.0025% Tween 20), a purified PP1 protein was added thereto, and then the resulting mixture was reacted for 30 minutes, and the results of measuring fluorescence polarization using TECAN Infinite F200 Pro are illustrated in FIG. 19.\nThe binding powers of Helix 3-1 (SEQ ID NO: 14), Helix 3-2 (SEQ ID NO: 15), Helix 3-3 (SEQ ID NO: 13), and Helix 3 were compared by narrowing the sequence involved in binding to PP1 in the Helix-3 sequence (SEQ ID NO: 11) consisting of 19 amino acids."}},
  "note": "Where no end group is shown, it is not given here.",
  "data": [
    {"molecule": "11R-GGG-VVRVWFCNRRQK: Cell permeable peptide to which the sequence of Helix-3-3 was linked: RRRRRRRRRRRGGGVVRVWFCNRRQK (Cell penetrating peptide CPP H3-3)", "values": [
      {"measurement": "phosphorylation of OCT4", "setting": "[1]", "value": "increase in phosphorylation of OCT4"}
    ]},
    {"molecule": "C=C1[C@@H](O)[C@@H]2O[C@]3(CC[C@H](/C=C/[C@@H](C)[C@@H]4CC(C)=C[C@@]5(O[C@H](C[C@@](C)(O)C(=O)O)CC[C@H]5O)O4)O3)CC[C@H]2O[C@@H]1[C@@H](O)C[C@H](C)[C@H]1O[C@@]2(CCCCO2)CC[C@H]1C", "note": "[okadaic acid]", "values": [
      {"measurement": "phosphorylation of OCT4", "setting": "[2]", "value": "the phosphorylation of OCT4 was increased"}
    ]},
    {"molecule": "Helix 1-3: Amino acid sequence NRVRGNLENLFLQCPKPTLQQISHIAQQLGLEKDVVRVWFCNRRQKGKRS; OCT4 function-inhibiting peptide, expressed from pCAG-F-puro vector (Helix 1-3)", "values": [
      {"measurement": "phosphorylation of OCT4", "setting": "[3]", "value": "the highest"}
    ]},
    {"molecule": "Helix 1: Amino acid sequence NRVRGNLENL; OCT4 function-inhibiting peptide (also: FITC label (site not given here))", "values": [
      {"measurement": "phosphorylation of OCT4", "setting": "[3]", "value": "the highest"}
    ]},
    {"molecule": "Helix 3-3: Amino acid sequence VVRVWFCNRRQK; consisting of 12 amino acids (Helix 3-3)", "values": [
      {"measurement": "binding power to PP1 compared with Helix-3", "setting": "PP1 protein; FITC-bound peptides, fluorescence polarization (FIG. 20)", "value": "the same binding power as that of Helix-3"}
    ]},
    {"molecule": "Helix 3: Amino acid sequence KDVVRVWFCNRRQKGKRSS; OCT4 function-inhibiting peptide consisting of 19 amino acids (Helix 3)", "values": [
      {"measurement": "binding to PP1 (fluorescence polarization values)", "setting": "PP1 protein; FITC-bound peptide 20 nM, purified PP1 protein added, 30 minutes (FIG. 19)", "value": "bound"}
    ]}
  ]
}
